# Read-outs that look alike come from different tables or passages of the source.
# How the values were obtained:
# Assay type in all cases: in vivo, human
# [1] = test system: participants with DPNP; test: H0P-MC-NP03 Phase 2 placebo-controlled trial, diabetic peripheral neuropathic pain
# Source text: The purpose of this study was to test whether Example 5 is efficacious in relieving diabetic peripheral neuropathic pain (DPNP). Data was collected to assess the safety and tolerability of Example 5 in this study population and previously discussed above. Pharmacokinetic properties and pharmacodynamic effects were also explored. The totality of data from this proof-of-concept study will assess the benefits and risks associated with Example 5.
# NP03 was an 8-week, Phase 2, randomized, double-blind, placebo-controlled study that compared Example 5 versus placebo in participants with DPNP.
# Participants received either Example 5 or placebo. Based on tolerability, participants received up to a maximum of 3 capsules orally (each capsule was 200 mg), twice daily, approximately every 12 hours, for a total dose of 600 mg.
# The primary clinical question of interest was, “What is the treatment difference between Example 5 and placebo assessed using mean change from baseline to endpoint (Week 8) for average pain intensity (API) as measured by the Numeric Rating Scale (NRS) in participants with diabetic peripheral neuropathic pain (DPNP) regardless of initiation of rescue medication or other allowed concomitant medication and assuming that they would have continued initially randomized treatment condition?”
# Participants were randomly assigned 2:1 to Example 5 or placebo. Based on tolerability, participants could take up to a maximum of 3 capsules orally (each capsule was 200 mg), twice daily (BID), approximately every 12 hours, for a total dose of 600 mg BID.
# The protocol allowed changes to the dose for individual participants, but the maximum daily dose should not exceed 600 mg BID. The starting dose level was 200 mg BID. Decisions to change the dose level were made by the investigator in discussion with the participants based on the adverse events (AEs) reported for tolerability. The medical monitor was contacted as needed. All changes in dose level had to occur before the end of Visit 4 (Study Week 2).
# NP03 was an 8-week, multicenter, randomized, DB, placebo-controlled, Phase 2, proof-of-concept study to evaluate Example 5 for the treatment of DPNP. Participants were randomly assigned 2:1 to Example 5 or placebo. A total of 68 participants enrolled into the NP03 ISA, with 45 participants randomly assigned to Example 5, and 23 participants assigned to placebo. The safety population consisted of the 68 participants who received at least 1 dose of study intervention and included all participants in the enrolled population. Using a titration scheme, Example 5 was administered orally as a maximum of 3 capsule (200 mg per capsule) for a total dose of 600 mg approximately every 12 hours, with or without food. Fifty percent of participants completed the BD treatment phase.
# [2] = test system: participants with CLBP; test: H0P-MC-BP03 Phase 2 placebo-controlled trial, chronic low back pain
# Source text: The purpose of this study was to test whether Example 5 is efficacious in relieving chronic low back pain (CLBP). Data will be collected to assess the safety and tolerability of Example 5 in this study population, which was previously discussed. Pharmacokinetic (PK) properties and pharmacodynamic (PD) effects were also be explored. The totality of data from this proof-of-concept study will assess the benefits and risks associated with Example 5.
# BP03 was an 8-week, Phase 2, randomized, double-blind, placebo-controlled study that will compare Example 5 versus placebo in participants with CLBP. Participants received either Example 5 or placebo. Based on tolerability, participants took up to a maximum of 3 capsules orally (each capsule is 200 mg), twice daily (BID), approximately every 12 hours, for a total dose of 600 mg.
# The primary clinical question of interest was, “What is the treatment difference between Example 5 and placebo assessed using mean change from baseline to endpoint (Week 8) for average pain intensity (API) as measured by the numeric rating scale (NRS) in participants with CLBP regardless of initiation of rescue medication or other allowed concomitant medication and assuming that they would have continued initially randomized treatment condition?”
# [3] = Phase 1 study LXBA, multiple-dose steady-state plasma PK in healthy subjects; details: for RA (accumulation ratio based on AUC(0-τ)) / AUC: tau = 12 hours; for Cmax / AUC(0-t) / AUC: human, in vivo, steady state; for Cmax: n = 6, geometric mean; for AUC(0-t): = 2 × AUC(0-τ), read-out: AUC(0-24); for AUC: geometric mean, read-out: AUC(0-τ)
# Description: The multiple-dose PK of Example 5 were evaluated at doses of 200 mg, 400 mg, and 600 mg, twice daily. The median time to tmax ranged from 1 to 3 hours post dose.
# Study LXBA is a completed study and consisted of 2 parts, Part A and Part B (TABLE 1). Part A of the study had 18 healthy subjects in 3 dosing cohorts, and Part B had 9 healthy subjects exposed to Example 5. […] In Part A, all treatment-emergent adverse events (TEAEs) were mild in severity except for 1 moderate event of presyncope. Constipation and insomnia (2 events each) were the only TEAEs reported in >1 subject. In Part B, the reported TEAEs were dysgeusia, nausea, and vomiting, which were all mild in severity.
smiles,measurement,setting,value
"Cc1cccnc1OCC(C)(C)NC(=O)[C@H]1[C@@H]2CNC[C@@H]21.O=C(O)C(O)C(O)C(=O)O [Example 5, (1R,5S,6r)-N-(2-Methyl-1-((3-methylpyridin-2-yl)oxy)propan-2-yl)-3-azabicyclo[3.1.0]hexane-6-carboxamide L-tartrate sesquihydrate]","Mean Change of Average Pain Intensity, Weekly Average of NRS","[1]; 400 mg BID, week 1, n = 8",−0.74
same,"Observed Mean of Average Pain Intensity, Weekly Average of NRS","[1]; 400 mg BID, week 1, n = 8",5.76
same,"Mean Change of Average Pain Intensity, Weekly Average of NRS","[1]; 400 mg BID, week 2, n = 9",−1.62
same,"Observed Mean of Average Pain Intensity, Weekly Average of NRS","[1]; 400 mg BID, week 2, n = 9",4.90
same,"Mean Change of Average Pain Intensity, Weekly Average of NRS","[1]; 400 mg BID, week 3, n = 9",−2.12
same,"Observed Mean of Average Pain Intensity, Weekly Average of NRS","[1]; 400 mg BID, week 3, n = 9",4.41
same,"Mean Change of Average Pain Intensity, Weekly Average of NRS","[1]; 400 mg BID, week 4, n = 6",−2.05
same,"Observed Mean of Average Pain Intensity, Weekly Average of NRS","[1]; 400 mg BID, week 4, n = 6",5.46
same,"Mean Change of Average Pain Intensity, Weekly Average of NRS","[1]; 400 mg BID, week 5, n = 4",−3.37
same,"Observed Mean of Average Pain Intensity, Weekly Average of NRS","[1]; 400 mg BID, week 5, n = 4",4.66
same,"Mean Change of Average Pain Intensity, Weekly Average of NRS","[1]; 400 mg BID, week 6, n = 5",−2.72
same,"Observed Mean of Average Pain Intensity, Weekly Average of NRS","[1]; 400 mg BID, week 6, n = 5",4.15
same,"Mean Change of Average Pain Intensity, Weekly Average of NRS","[1]; 400 mg BID, week 7, n = 4",−3.34
same,"Observed Mean of Average Pain Intensity, Weekly Average of NRS","[1]; 400 mg BID, week 7, n = 4",2.96
same,"Mean Change of Average Pain Intensity, Weekly Average of NRS","[1]; 400 mg BID, week 8, n = 4",−3.39
same,"Observed Mean of Average Pain Intensity, Weekly Average of NRS","[1]; 400 mg BID, week 8, n = 4",4.17
same,"Mean Change of Average Pain Intensity, Weekly Average of NRS","[1]; 600 mg BID, week 1, n = 30",−0.72
same,"Observed Mean of Average Pain Intensity, Weekly Average of NRS","[1]; 600 mg BID, week 1, n = 30",5.77
same,"Mean Change of Average Pain Intensity, Weekly Average of NRS","[1]; 600 mg BID, week 2, n = 29",−1.59
same,"Observed Mean of Average Pain Intensity, Weekly Average of NRS","[1]; 600 mg BID, week 2, n = 29",4.91
same,"Mean Change of Average Pain Intensity, Weekly Average of NRS","[1]; 600 mg BID, week 3, n = 23",−2.09
same,"Observed Mean of Average Pain Intensity, Weekly Average of NRS","[1]; 600 mg BID, week 3, n = 23",4.82
same,"Mean Change of Average Pain Intensity, Weekly Average of NRS","[1]; 600 mg BID, week 4, n = 24",−2.18
same,"Observed Mean of Average Pain Intensity, Weekly Average of NRS","[1]; 600 mg BID, week 4, n = 24",4.64
same,"Mean Change of Average Pain Intensity, Weekly Average of NRS","[1]; 600 mg BID, week 5, n = 21",−2.43
same,"Observed Mean of Average Pain Intensity, Weekly Average of NRS","[1]; 600 mg BID, week 5, n = 21",4.18
same,"Mean Change of Average Pain Intensity, Weekly Average of NRS","[1]; 600 mg BID, week 6, n = 19",−2.37
same,"Observed Mean of Average Pain Intensity, Weekly Average of NRS","[1]; 600 mg BID, week 6, n = 19",4.26
same,"Mean Change of Average Pain Intensity, Weekly Average of NRS","[1]; 600 mg BID, week 7, n = 17",−2.64
same,"Observed Mean of Average Pain Intensity, Weekly Average of NRS","[1]; 600 mg BID, week 7, n = 17",3.78
same,"Mean Change of Average Pain Intensity, Weekly Average of NRS","[1]; 600 mg BID, week 8, n = 16",−2.74
same,"Observed Mean of Average Pain Intensity, Weekly Average of NRS","[1]; 600 mg BID, week 8, n = 16",3.79
same,Mean change from baseline assessment to endpoint for API as measured using the NRS,"[1]; 8 weeks after initial treatment administration, up to 600 mg Q12H, n = 45",−2.75
same,most secondary endpoints compared with placebo,[1]; DPNP,greater numerical improvements
same,"decrease in API measured by NRS, 400 mg dosing regimen compared with the 600 mg dosing regimen",[1]; Week 8,greater decrease in API measured by NRS in the 400 mg dosing regimen
same,primary objective: posterior probability for change from baseline in API versus placebo,"[1]; Week 8, DPNP",met the prespecified threshold
same,Mean change from baseline assessment to endpoint for worst pain intensity as measured by weekly NRS,"[1]; Week 8, n = 45",−3.06
same,Mean change from baseline assessment to endpoint on the VAS for pain,"[1]; Week 8, n = 45",−30.20
same,Mean change from baseline to endpoint for the BPI-SFM,"[1]; Week 8, n = 45",−2.31
same,Overall improvement to endpoint as measured by PGIC,"[1]; Week 8, n = 45",2.3
same,Mean change from baseline assessment to endpoint for API as measured using the NRS,"[2]; 8 weeks after initial treatment administration, up to 600 mg Q12H, n = 102",−1.7
same,"primary objective: efficacy versus placebo, API by weekly average of NRS","[2]; Week 8, CLBP",did not meet the prespecified threshold
same,RA (accumulation ratio based on AUC(0-τ)),[3]; 200 mg BID,1.49
same,RA (accumulation ratio based on AUC(0-τ)),[3]; 400 mg BID,1.81
same,RA (accumulation ratio based on AUC(0-τ)),[3]; 600 mg BID,1.64
same,Cmax,[3]; 200 mg BID (400 mg),1620 ng/mL
same,AUC(0-t),[3]; 200 mg BID,23000 ng·h/mL
same,AUC,[3]; 200 mg BID,11500 ng·h/mL
same,Cmax,[3]; 400 mg BID (800 mg),3240 ng/mL
same,AUC(0-t),[3]; 400 mg BID,51000 ng·h/mL
same,AUC,[3]; 400 mg BID,25800 ng·h/mL
same,Cmax,[3]; 600 mg BID (1200 mg),5210 ng/mL
same,AUC(0-t),[3]; 600 mg BID,77400 ng·h/mL
same,AUC,[3]; 600 mg BID,38700 ng·h/mL
same,steady-state Cmax and AUC0-24 inter-subject coefficient of variations,"[3]; multiple dose, 200 mg, 400 mg and 600 mg twice daily",< 25%
